Test results taken from patent publication EP0332679B1, “ANTIVIRAL CO[…] […] AND METHOD FOR TREATING […]” (NEW YORK UNIVERSITY, priority 1987, dated 1989).
Values joined by “and” are separate entries in the source; they are usually repeats but may differ in a detail not shown here. Equal values may be shown once. “Also recorded” adds a separate entry of the source.

Tests used:
[1] = tested on: Radiation Leukemia Virus (RadLV); assay: H-2 antigen expression in thymocytes (FACS) after intrathymic inoculation of radiation leukemia virus; assay type: in vivo, B10.T(6R) mice
Text: The intrathymic inoculation of murine radiation leukemia virus in susceptible strains of mice results in the malignant transformation of the thymocytes and the development of overt leukemia (as described in Meruelo, D. et al J. Exp. Med. 147: 470-487, 1978). […] Among the early events which follow the viral infection in some mouse strains is a dramatic increase in the cell surface expression of class I H-2 antigens. This increase is then followed by a reduction in the expression of these antigens after the malignant transformation and subsequent development of leukemia. The changes in H-2 antigen expression have been utilized to monitor viral infectivity and to determine the effects of Hy and Ps on the level of infectivity of this virus.
Murine radiation leukemia virus (RadLV) was inoculated intrathymically into B10.T(6R) mice as described in Meruelo et al (supra). Groups of six mice were treated 24 h later with 30 µg per mouse of compound Hy administered intraperitoneally in isotonic saline solution. The mice were sacrificed ten days later and the expression of Class I H-2 antigens determined by analysis with a fluorescence activated cell sorter (Ortho Cytofluorograph Model 50H, Ortho Diagnostic Systems, Westwood, MA) (FACS), using X-56 anti-H-2D^d mouse monospecific antibodies (as described in Meruelo, et al supra; similar antibodies are available as ATCC No. HB75, American Type Culture Collection, Rockville, MD).

[2] = in vivo; cited from earlier work
[3] = in vivo; cited from earlier work; remark: listed apart in the source
[4] = tested on: Friend Leukemia Virus (FV); assay: Splenomegaly after Friend Leukemia Virus infection, compound given intraperitoneally 24 h after intravenous virus; assay type: in vivo, BALB/c mice; conditions: for Spleen weight: individual mice
Text: Friend Leukemia virus (FV) an aggressive retrovirus induces an acute erythroleukemia in sensitive strains of mice such as BALB/c and NIH SWISS mice (as described in Friend, C. J. Exp. Med. 105: 307-324, 1957; Friend, C. et al Nat. Cancer Inst. Monogr. 22: 505-522, 1966; Friend, C. et al Proc. Natl. Acad. Sci. U.S.A. 68: 378-383, 1971). The malignant transformation is the result of the combined activities of the spleen focus forming virus (SFFV) and the ecotropic murine Friend Leukemia helper virus (F-MuLv). The acute erythroleukemia is characterized by hepatosplenomegaly (a marked increase in the size of the spleen and liver) and a severe anemia.
Friend Leukemia virus was prepared by homogenizing the enlarged spleen of a mouse previously infected with FV, 10 days after intravenous virus injection. The spleen was homogenized in phosphate buffered saline in a volume equal to 10 times the weight of the isolated spleen.
The effects of Hy and Ps on the increase in spleen size (splenomegaly) of BALB/c mice (Jackson Labs, Bar Harbor, ME) was examined. […] The animals were then sacrificed ten days later and their spleens weighed.

[5] = tested on: Friend Leukemia Virus (FV); assay: Splenomegaly after simultaneous intravenous co-administration of compound with FV; assay type: in vivo, mice; conditions: for Spleen Weights: individual mice
Procedure: A different experimental design was also tested involving the simultaneous intravenous co-administration of Ps with the FV complex. In this case, the viral preparation was mixed with Ps at various concentrations and the mixture was injected into the mouse tail vein in a final volume of 0.5ml. The mice were sacrificed ten days later, the spleens weighed and the level of inhibition of splenomegaly subsequently determined.

[6] = tested on: Friend Leukemia Virus (FV); assay: Liver function (serum liver-associated proteins) of FV infected mice with or without compound; assay type: in vivo, BALB/c mice; conditions: for CHOLEST: pooled serum of 4 mice
Text: BALB/c mice were inoculated with FV at a concentration of 2x10⁵ FFU. Each group of animals contained 4 mice, and analyses were done in pooled aliquots.
In Table 3, BU = Total Bilirubin, AP = Alkaline phosphatase, LDH = Lactate dehydrogenase, SGOT = Serum glutamyl aminotransferase, SGPT = […], and GGT = Gamma-glutamyl-transpeptidase.

[7] = FV 2x10^5 FFU, 2 injections 80 μg/mouse
[8] = FV 2x10^5 FFU, single i.p. injection 80 μg/mouse
[9] = FV 10^6 FFU, 2 injections 80 µg/mouse
[10] = FV 10^6 FFU, single i.p. injection 80 µg/mouse
[11] = IPFVIVPS: FV intraperitoneal, Ps intravenous, pooled serum
[12] = IVFVIPPS: FV intravenous, Ps intraperitoneal, pooled serum

Cc1cc(O)c2c(=O)c3c(O)cc(O)c4c5c(O)cc(O)c6c(=O)c7c(O)cc(C)c8c1c2c(c34)c(c78)c65 [Hy, hypericin]
% inhibition (of virus-induced increase in H-2 antigen expression) ([1]; mouse, in vivo): (1) % inhibition = 100-[(Treated 30 μg) - (Base Line) / Virus Induced - Base Line] x100=82% | % of cells stained with antibody ([1]; mouse, in vivo, ip): 76.7% and 77.2% and 96.3% and 84.8% and 54.0% and 97.8% | % of cells stained with antibody, mean (x̄) ([1]; mouse, in vivo, ip): x̄=81.13% | effect on RadLV-induced increase in H-2 expression (in words) ([1]; mouse, in vivo, ip): significant inhibition in the increase in H-2 expression in four of the six mice tested | effect on the human organism (in words) [2]: tonic and tranquilizing effect | photosensitivity (in words) [3]: produce photosensitivity upon ingestion

Cc1cc(O)c2c(=O)c3c(O)cc(O)c4c5c(O)cc(O)c6c(=O)c7c(O)cc(CO)c8c1c2c(c34)c(c65)c78 [Ps, pseudohypericin]
% Inhib (splenomegaly) [4, 7]: 81.7% | Net change from control (spleen weight) [4, 7]: Net change from control=0.1292 | Spleen weight, mean (x̄) [4, 7]: x̄=0.3138±0.1197 g | % Inhib (splenomegaly) ([4]; FV 2x10^5 FFU, 2 injections 80 μg/mouse, listed as PS): % Inhib=81.15 | % Inhib (splenomegaly) [4, 8]: 89.6% | Net change from control (spleen weight) [4, 8]: Net change from control=0.0714 | Spleen weight, mean (x̄) [4, 8]: x̄=0.2560±0.0723 g | % Inhib (splenomegaly) ([4]; FV 2x10^5 FFU, single i.p. injection 80 μg/mouse, listed as PS): % Inhib=89.58 | % Inhib (splenomegaly) [4, 9]: 90.7% | Net change from control (spleen weight) [4, 9]: Net change from control=0.0841 | Spleen weight, mean (x̄) [4, 9]: x̄=0.2687±0.0621 g | % Inhib (splenomegaly) ([4]; FV 10^6 FFU, 2 injections 80 µg/mouse, listed as PS): % Inhib=90.70 | % Inhib (splenomegaly) [4, 10]: 93.8% | Net change from control (spleen weight) [4, 10]: Net change from control=0.0558 | Spleen weight, mean (x̄) [4, 10]: x̄=0.2404±0.0482 g | % Inhib (splenomegaly) ([4]; FV 10^6 FFU, single i.p. injection 80 µg/mouse, listed as PS): % Inhib=93.82 | Spleen weight [4, 7]: 0.2722 Spleen weight (g ) and 0.2438 Spleen weight (g ) and 0.4924 Spleen weight (g ) and 0.2469 Spleen weight (g ) | Spleen weight [4, 8]: 0.2208 Spleen weight (g ) and 0.1791 Spleen weight (g ) and 0.3457 Spleen weight (g ) and 0.2784 Spleen weight (g ) | Spleen weight ([4]; FV 10^6 FFU i.v., 2 daily consecutive i.p. injections of 80 µg/mouse): 0.2457 Spleen weight (g ) and 0.3400 Spleen weight (g ) and 0.2938 Spleen weight (g ) and 0.1956 Spleen weight (g ) | Spleen weight ([4]; FV 10^6 FFU i.v., single i.p. injection 80 µg/mouse 24 h later, sacrificed ten days later): 0.2831 Spleen weight (g ) and 0.2761 Spleen weight (g ) and 0.2215 Spleen weight (g ) and 0.1810 Spleen weight (g ) | % inhibition (splenomegaly) ([5]; 5mcg per mouse i.v. with FV): 75.44% | Spleen Weights, mean (x̄) ([5]; 5mcg per mouse i.v. with FV): x̄=0.3862 ±0.0353 grams | % inhibition (splenomegaly) ([5]; 5mcg per mouse i.v. with FV, listed as PS): = 75.44% | % inhibition (splenomegaly) ([5]; 20 mcg per mouse i.v. with FV): 100% | Spleen Weights, mean (x̄) ([5]; 20 mcg per mouse i.v. with FV): x̄=0.1614 ±0.0253 grams | % inhibition (splenomegaly) ([5]; 20 mcg per mouse i.v. with FV, listed as PS): 100% | % inhibition (splenomegaly) ([5]; 50mcg per mouse i.v. with FV): 100% | Spleen Weights, mean (x̄) ([5]; 50mcg per mouse i.v. with FV): x̄=0.1572 ±0.0217 grams | % inhibition (splenomegaly) ([5]; 50mcg per mouse i.v. with FV, listed as PS): 100% | Spleen Weights ([5]; 5mcg per mouse i.v. mixed with FV, sacrificed ten days later): 0.3425 grams and 0.3766 grams and 0.4005 grams and 0.4255 grams | Spleen Weights ([5]; 20 mcg per mouse i.v. mixed with FV): 0.1655 grams and 0.1426 grams and 0.1433 grams and 0.1966 grams | Spleen Weights ([5]; 50mcg per mouse i.v. mixed with FV): 0.1830 grams and 0.1674 grams and 0.1422 grams and 0.1365 grams | CHOLEST ([6]; IPFVIVPS: FV intraperitoneal (2x10^5 FFU), Ps intravenous): 137 mg/dL | ALBUMIN [6, 11]: 3.2 g/dL | AP (Alkaline phosphatase) [6, 11]: 200 IU/l | BU (Total Bilirubin) [6, 11]: 0.3 mg/dL | GGT (Gamma-glutamyl-transpeptidase) [6, 11]: 4 miu/ml | LDH (Lactate dehydrogenase) [6, 11]: 2305 IU/l | SGOT [6, 11]: 244 IU/l | SGPT [6, 11]: 135 IU/l | Total PROTEIN [6, 11]: 5.5 g/dL | CHOLEST ([6]; IVFVIPPS: FV intravenous (2x10^5 FFU), Ps intraperitoneal): 109 mg/dL | ALBUMIN [6, 12]: 3.4 g/dL | AP (Alkaline phosphatase) [6, 12]: 226 IU/l | BU (Total Bilirubin) [6, 12]: 0.1 mg/dL | LDH (Lactate dehydrogenase) [6, 12]: 3303 IU/l | SGOT [6, 12]: 213 IU/l | SGPT [6, 12]: 99 IU/l | Total PROTEIN [6, 12]: 5.7 g/dL | effect on RadLV-induced increase in H-2 expression (in words) ([1]; 30 µg per mouse i.p. 24 h after viral inoculation): No effects on H-2 expression | mean fluorescent intensity in fluorescent units ([1]; individual mice, 30 μg/mouse i.p. 24 h after intrathymic RadLV, thymocytes ten days later): (713.3) fluorescent units; also recorded: (639) fluorescent units | % of cells stained with antibody ([1]; individual mice, 30 μg/mouse i.p. 24 h after intrathymic RadLV, thymocytes ten days later, anti-H-2D^d antibody): 97.4% and 94.3%
